Assay results published in ChEMBL document CHEMBL3045399, “A novel series of homoallylic amines as potential antimicrobials” (2012).
Converted amounts (≈) assume the structure as drawn. The source made the active and inactive calls. The calls are words filed in the database; no cut-off is given here.

How the values were obtained:
[1] = tested on: Escherichia coli; assay: Antimicrobial activity against Escherichia coli after 16 hr by serial dilution method; format: functional
[2] = tested on: Bacillus subtilis; assay: Antimicrobial activity against Bacillus subtilis after 16 hr by serial dilution method; format: functional
[3] = tested on: Staphylococcus aureus; assay: Antimicrobial activity against Staphylococcus aureus after 16 hr by serial dilution method; format: functional
[4] = tested on: Pseudomonas aeruginosa; assay: Antimicrobial activity against Pseudomonas aeruginosa after 16 hr by serial dilution method; format: functional
[5] = tested on: Escherichia coli; assay: Antimicrobial activity against Escherichia coli at 1.6125 to 50 ug/ml after 16 hr by serial dilution method; format: functional, organism-based
[6] = tested on: Staphylococcus aureus; assay: Antimicrobial activity against Staphylococcus aureus at 1.6125 to 50 ug/ml after 16 hr by serial dilution method; format: functional, organism-based
[7] = tested on: Pseudomonas aeruginosa; assay: Antimicrobial activity against Pseudomonas aeruginosa at 1.6125 to 50 ug/ml after 16 hr by serial dilution method; format: functional, organism-based
[8] = tested on: Bacillus subtilis; assay: Antimicrobial activity against Bacillus subtilis at 1.6125 to 50 ug/ml after 16 hr by serial dilution method; format: functional, organism-based

| MIC [1] | MIC [2] | MIC [3] | MIC [4] | SMILES | Activity [5] | Activity [6] | Activity [7] | Activity [8] |
| --- | --- | --- | --- | --- | --- | --- | --- | --- |
| 6.25 µg/mL (≈ 19.9 µM) | 6.25 µg/mL (≈ 19.9 µM) | 6.25 µg/mL (≈ 19.9 µM) | 25 µg/mL (≈ 79.5 µM) | C=CCC(Nc1ccc(N2CCOCC2)cc1)C1CCCCC1 (configuration not stated) |  |  |  |  |
| 1.61 µg/mL (≈ 5.15 µM) | 1.61 µg/mL (≈ 5.15 µM) | 1.61 µg/mL (≈ 5.15 µM) | 1.61 µg/mL (≈ 5.15 µM) | C=CCC(Nc1cc(F)c(F)cc1F)c1ccc(F)cc1F (configuration not stated) |  |  |  |  |
|  |  |  |  | C=CCC(Nc1ccc(C(C)(C)C)cc1)C1CC1 (configuration not stated) | inactive | inactive | inactive | inactive |
| 12.5 µg/mL (≈ 34.6 µM) | 12.5 µg/mL (≈ 34.6 µM) | 12.5 µg/mL (≈ 34.6 µM) | 12.5 µg/mL (≈ 34.6 µM) | C=CCC(Nc1cccc2ncsc12)c1cn(C(C)=O)c2ccccc12 (configuration not stated) |  |  |  |  |
| 3.12 µg/mL (≈ 9.97 µM) | 3.12 µg/mL (≈ 9.97 µM) | 1.61 µg/mL (≈ 5.15 µM) | 3.12 µg/mL (≈ 9.97 µM) | C=CCC(NCc1ccc(F)c(F)c1)c1cc2ccccc2o1 (configuration not stated) |  |  |  |  |
| 3.12 µg/mL (≈ 6.94 µM) | 3.12 µg/mL (≈ 6.94 µM) | 3.12 µg/mL (≈ 6.94 µM) | 3.12 µg/mL (≈ 6.94 µM) | C=CCC(Nc1ccc(Oc2ccc(Cl)cc2)cc1)c1ccc(-c2ccccc2Cl)o1 (configuration not stated) |  |  |  |  |
| 12.5 µg/mL (≈ 48.6 µM) | 12.5 µg/mL (≈ 48.6 µM) | 6.25 µg/mL (≈ 24.3 µM) | 12.5 µg/mL (≈ 48.6 µM) | C=CCC(Nc1cc(C)ccc1C)C1CCCCC1 (configuration not stated) |  |  |  |  |
| 1.61 µg/mL (≈ 5.58 µM) | 1.61 µg/mL (≈ 5.58 µM) | 1.61 µg/mL (≈ 5.58 µM) | 1.61 µg/mL (≈ 5.58 µM) | C=CCC(Nc1cccc(F)c1)c1cc(OC)ccc1F (configuration not stated) |  |  |  |  |
| 25 µg/mL (≈ 91.4 µM) | 25 µg/mL (≈ 91.4 µM) | 25 µg/mL (≈ 91.4 µM) | 25 µg/mL (≈ 91.4 µM) | C=CCC(Nc1cccc2ccccc12)c1ccccc1 (configuration not stated) |  |  |  |  |
| 6.25 µg/mL (≈ 15.4 µM) | 3.12 µg/mL (≈ 7.7 µM) | 3.12 µg/mL (≈ 7.7 µM) | 25 µg/mL (≈ 61.6 µM) | C=CCOc1ccccc1C(CC=C)Nc1ccc(Oc2ccc(Cl)cc2)cc1 (configuration not stated) |  |  |  |  |
| 1.61 µg/mL (≈ 5.17 µM) | 1.61 µg/mL (≈ 5.17 µM) | 3.12 µg/mL (≈ 10 µM) | 1.61 µg/mL (≈ 5.17 µM) | C=CCC(Nc1ccc(Cl)cc1F)c1c(F)cccc1F (configuration not stated) |  |  |  |  |
| 3.12 µg/mL (≈ 12.3 µM) | 6.25 µg/mL (≈ 24.6 µM) | 6.25 µg/mL (≈ 24.6 µM) | 6.25 µg/mL (≈ 24.6 µM) | C=CCC(Nc1ccc(C#N)cc1)c1ccsc1 (configuration not stated) |  |  |  |  |
| 1.61 µg/mL (≈ 5.46 µM) | 1.61 µg/mL (≈ 5.46 µM) | 1.61 µg/mL (≈ 5.46 µM) | 1.61 µg/mL (≈ 5.46 µM) | C=CCC(Nc1ccc(F)cc1F)c1ccc(F)cc1F (configuration not stated) |  |  |  |  |
| 3.12 µg/mL (≈ 11 µM) | 3.12 µg/mL (≈ 11 µM) | 3.12 µg/mL (≈ 11 µM) | 3.12 µg/mL (≈ 11 µM) | C=CCC(Nc1ccc(F)cc1)c1cccc(OCC)c1 (configuration not stated) |  |  |  |  |
|  | 1.61 µg/mL (≈ 5.9 µM) | 1.61 µg/mL (≈ 5.9 µM) |  | C=CCC(Nc1ccc(F)c(C(F)(F)F)c1)C1CC1 (configuration not stated) | inactive |  | inactive |  |
| 3.12 µg/mL (≈ 9.91 µM) | 3.12 µg/mL (≈ 9.91 µM) | 3.12 µg/mL (≈ 9.91 µM) | 3.12 µg/mL (≈ 9.91 µM) | C=CCC(Nc1ccc(C(C)(C)C)cc1)c1ccc(F)cc1F (configuration not stated) |  |  |  |  |
| 25 µg/mL (≈ 79.8 µM) | 1.61 µg/mL (≈ 5.15 µM) | 1.61 µg/mL (≈ 5.15 µM) |  | C=CCC(Nc1cccc2ccccc12)c1cc2ccccc2o1 (configuration not stated) |  |  | inactive |  |

| SMILES | MIC [1] | MIC [2] | MIC [3] | MIC [4] | Activity [5] | Activity [6] | Activity [7] | Activity [8] |
| --- | --- | --- | --- | --- | --- | --- | --- | --- |
| CO/N=C(\C(=O)N[C@@H]1C(=O)N2C(C(=O)O)=C(CSc3nc(=O)c(O)nn3C)CS[C@H]12)c1csc(N)n1 [CEFTRIAXONE] | 1.61 µg/mL (≈ 2.91 µM) | 1.61 µg/mL (≈ 2.91 µM) | 3.12 µg/mL (≈ 5.63 µM) | 1.61 µg/mL (≈ 2.91 µM) |  |  |  |  |
